pIC50: −log10 of the molar value. Active and inactive are the calls of the source. The calls are words filed in the database; no cut-off is given here.
Tests used:
[1] = system: SW480; assay: Antiproliferative activity against human SW480 cells measured after 72 hrs; type: functional, cell-based; details: SW480, 72 h
[2] = system: HCT-116; assay: Antiproliferative activity against human HCT-116 cells measured after 72 hrs; type: functional, cell-based; details: HCT-116, 72 h
[3] = system: MCF7; assay: Antiproliferative activity against human MCF7 cells measured after 72 hrs; type: functional, cell-based; details: MCF7, 72 h
[4] = system: A549; assay: Antiproliferative activity against human A549 cells measured after 72 hrs; type: functional, cell-based; details: A549, 72 h
[5] = biological target: T1, Histone deacetylase 1/2/3 (Homo sapiens) (UniProt Q13547+O15379+Q92769); assay: Inhibition of HDAC1/HDAC2/HDAC3 in human HCT-116 cells assessed as increase in accumulation of acetylated histone H4 measured after 48 hrs by Western blot analysis; type: cell-based; details: dose 200-800 nM, DDE = dose-dependent effect
[6] = system: HCT-116; assay: Inhibition of colony formation in human HCT-116 cells; type: functional, cell-based; details: dose 50-200 nM, DDE = dose-dependent effect
[7] = system: HCT-116; assay: Induction of apoptosis in human HCT-116 cells assessed as appearance of smaller nuclei measured after 48 hrs by Hoechst 33342 staining based assay; type: functional, cell-based; details: dose 50-200 nM, DDE = dose-dependent effect
[8] = biological target: T1, Histone deacetylase 1/2/3 (Homo sapiens); assay: Inhibition of HDAC1/HDAC2/HDAC3 in human HCT-116 cells assessed as increase in accumulation of acetylated histone H3 measured after 48 hrs by Western blot analysis; type: cell-based; details: dose 200-800 nM, DDE = dose-dependent effect
[9] = organism: Homo sapiens; assay: Selectivity ratio of IC50 for HDAC6 (unknown origin) to IC50 for HDAC1 (unknown origin)
[10] = biological target: Histone deacetylase 1 (Homo sapiens, UniProt Q13547); assay: Inhibition of HDAC1 (unknown origin)
Histone deacetylase 1, sequence (Q13547 whole entry): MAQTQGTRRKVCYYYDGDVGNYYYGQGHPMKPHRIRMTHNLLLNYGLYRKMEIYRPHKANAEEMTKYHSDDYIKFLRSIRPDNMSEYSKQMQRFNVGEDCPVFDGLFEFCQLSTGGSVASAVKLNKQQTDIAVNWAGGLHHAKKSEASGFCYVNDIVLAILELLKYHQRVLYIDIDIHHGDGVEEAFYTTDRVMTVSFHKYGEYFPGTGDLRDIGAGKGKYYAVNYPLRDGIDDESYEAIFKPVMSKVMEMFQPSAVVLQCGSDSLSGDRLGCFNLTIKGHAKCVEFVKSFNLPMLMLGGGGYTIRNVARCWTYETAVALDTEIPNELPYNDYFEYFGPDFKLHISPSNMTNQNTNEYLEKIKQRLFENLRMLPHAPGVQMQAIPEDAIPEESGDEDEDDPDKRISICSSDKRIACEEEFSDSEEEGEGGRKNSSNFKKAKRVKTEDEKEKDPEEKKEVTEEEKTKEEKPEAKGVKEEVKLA

[11] = Cytotoxicity against human L02 cells measured after 72 hrs
[12] = organism: Homo sapiens; assay: Selectivity ratio of IC50 for HDAC6 (unknown origin) to IC50 for HDAC2 (unknown origin)
[13] = organism: Homo sapiens; assay: Selectivity ratio of IC50 for HDAC6 (unknown origin) to IC50 for HDAC3 (unknown origin)
[14] = system: HCT-116; assay: Induction of apoptosis in human HCT-116 cells measured after 48 hrs by Annexin-FITC/propidium iodide staining based flow cytometry; type: functional, cell-based; details: dose 50-200 nM, DDE = dose-dependent effect
[15] = biological target: T2, Histone deacetylase 8 (Homo sapiens, UniProt Q9BY41); assay: Inhibition of HDAC8 (unknown origin)
T2 sequence (Q9BY41 whole entry): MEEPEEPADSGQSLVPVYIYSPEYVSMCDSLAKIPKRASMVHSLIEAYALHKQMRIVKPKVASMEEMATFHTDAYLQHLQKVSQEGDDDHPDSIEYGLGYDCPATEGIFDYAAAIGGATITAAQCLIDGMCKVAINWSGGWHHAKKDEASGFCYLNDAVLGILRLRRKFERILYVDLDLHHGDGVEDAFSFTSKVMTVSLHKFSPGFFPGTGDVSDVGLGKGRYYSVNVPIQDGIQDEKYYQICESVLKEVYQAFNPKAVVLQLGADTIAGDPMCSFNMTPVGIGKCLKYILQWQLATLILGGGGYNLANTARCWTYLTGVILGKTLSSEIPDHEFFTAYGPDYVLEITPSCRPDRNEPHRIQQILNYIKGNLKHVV

[16] = system: HCT-116; assay: Induction of apoptosis in human HCT-116 cells assessed as apoptotic cells at 200 nM measured after 48 hrs by Annexin-FITC/propidium iodide staining based flow cytometry relative to control; type: functional
[17] = system: HCT-116; assay: Cell cycle arrest in human HCT-116 cells assessed as increase in accumulation at G2/M phase measured after 48 hrs by propidium iodide staining based flow cytometry; type: functional; details: dose 50-200 nM, DDE = dose-dependent effect
[18] = system: HCT-116; assay: Antimigratory activity against human HCT-116 cells at 25 nM measured after 48 hrs by wound healing assay; type: functional, cell-based
[19] = biological target: Histone deacetylase 2 (Homo sapiens, UniProt Q92769); assay: Inhibition of HDAC2 (unknown origin)
Histone deacetylase 2, sequence (Q92769 whole entry): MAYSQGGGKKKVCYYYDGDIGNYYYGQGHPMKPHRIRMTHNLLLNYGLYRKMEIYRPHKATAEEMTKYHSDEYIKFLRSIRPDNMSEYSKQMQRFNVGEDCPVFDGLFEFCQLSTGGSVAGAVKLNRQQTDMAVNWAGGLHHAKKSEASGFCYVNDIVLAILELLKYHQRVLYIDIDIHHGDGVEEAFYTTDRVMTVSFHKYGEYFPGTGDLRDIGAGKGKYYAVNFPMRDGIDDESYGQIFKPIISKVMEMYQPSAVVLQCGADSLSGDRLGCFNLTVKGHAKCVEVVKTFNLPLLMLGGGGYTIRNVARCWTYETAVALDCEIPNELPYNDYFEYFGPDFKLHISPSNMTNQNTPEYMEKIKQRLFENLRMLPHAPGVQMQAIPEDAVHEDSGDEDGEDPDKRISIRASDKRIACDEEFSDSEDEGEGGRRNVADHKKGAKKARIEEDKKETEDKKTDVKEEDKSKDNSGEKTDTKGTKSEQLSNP

[20] = biological target: T3, Protein deacetylase HDAC6 (Homo sapiens, UniProt Q9UBN7); assay: Inhibition of HDAC6 (unknown origin)
T3 sequence (Q9UBN7 whole entry): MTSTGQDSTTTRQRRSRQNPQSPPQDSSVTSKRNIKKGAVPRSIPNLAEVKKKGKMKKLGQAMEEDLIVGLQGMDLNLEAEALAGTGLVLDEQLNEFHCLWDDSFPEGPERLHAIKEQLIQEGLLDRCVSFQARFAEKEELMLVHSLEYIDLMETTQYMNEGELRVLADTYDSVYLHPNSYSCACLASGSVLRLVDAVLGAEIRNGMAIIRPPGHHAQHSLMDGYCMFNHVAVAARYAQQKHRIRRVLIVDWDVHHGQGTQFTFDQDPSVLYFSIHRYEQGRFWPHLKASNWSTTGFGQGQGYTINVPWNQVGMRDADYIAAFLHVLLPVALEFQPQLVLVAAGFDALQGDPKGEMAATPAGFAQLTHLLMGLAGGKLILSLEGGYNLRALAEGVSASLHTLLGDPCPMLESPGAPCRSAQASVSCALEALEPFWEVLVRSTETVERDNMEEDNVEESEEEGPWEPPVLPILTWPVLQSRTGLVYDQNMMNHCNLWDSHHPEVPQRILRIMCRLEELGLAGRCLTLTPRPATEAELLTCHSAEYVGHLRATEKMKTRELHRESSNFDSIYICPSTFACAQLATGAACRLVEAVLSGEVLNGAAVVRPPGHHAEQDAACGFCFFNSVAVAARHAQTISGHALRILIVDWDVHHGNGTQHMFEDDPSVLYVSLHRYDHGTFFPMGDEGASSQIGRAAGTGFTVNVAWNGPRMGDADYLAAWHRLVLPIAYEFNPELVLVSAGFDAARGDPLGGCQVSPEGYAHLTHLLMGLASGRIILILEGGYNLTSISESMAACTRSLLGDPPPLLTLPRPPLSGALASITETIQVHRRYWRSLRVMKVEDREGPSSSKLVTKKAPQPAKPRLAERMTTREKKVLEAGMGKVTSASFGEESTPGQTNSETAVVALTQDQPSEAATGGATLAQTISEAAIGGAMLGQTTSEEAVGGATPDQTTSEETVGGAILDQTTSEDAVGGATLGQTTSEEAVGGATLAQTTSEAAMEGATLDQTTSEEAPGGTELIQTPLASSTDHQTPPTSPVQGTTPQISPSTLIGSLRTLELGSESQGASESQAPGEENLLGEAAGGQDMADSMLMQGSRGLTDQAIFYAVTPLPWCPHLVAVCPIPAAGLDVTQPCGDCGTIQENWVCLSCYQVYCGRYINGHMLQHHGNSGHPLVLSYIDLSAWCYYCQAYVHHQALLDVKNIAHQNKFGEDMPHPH

[21] = system: HCT-116; assay: Induction of apoptosis in human HCT-116 cells assessed as chromatin condensation measured after 48 hrs by Hoechst 33342 staining based assay; type: functional, cell-based; details: dose 50-200 nM, DDE = dose-dependent effect
[22] = biological target: Histone deacetylase 3 (Homo sapiens, UniProt O15379); assay: Inhibition of HDAC3 (unknown origin)
Histone deacetylase 3, sequence (O15379 whole entry): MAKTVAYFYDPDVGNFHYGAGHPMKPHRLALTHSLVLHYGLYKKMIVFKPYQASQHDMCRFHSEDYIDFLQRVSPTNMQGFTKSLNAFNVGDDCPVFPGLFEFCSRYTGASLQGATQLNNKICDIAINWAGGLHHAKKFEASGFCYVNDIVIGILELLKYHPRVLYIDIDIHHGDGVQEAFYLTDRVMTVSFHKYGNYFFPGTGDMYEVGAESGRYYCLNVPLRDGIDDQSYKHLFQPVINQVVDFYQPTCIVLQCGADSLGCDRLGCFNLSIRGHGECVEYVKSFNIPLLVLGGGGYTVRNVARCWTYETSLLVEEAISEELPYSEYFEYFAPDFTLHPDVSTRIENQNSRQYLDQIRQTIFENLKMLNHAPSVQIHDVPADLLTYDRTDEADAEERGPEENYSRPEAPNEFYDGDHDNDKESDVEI

[23] = system: HCT-116; assay: Induction of apoptosis in human HCT-116 cells assessed as apoptotic cells at 100 nM measured after 48 hrs by Annexin-FITC/propidium iodide staining based flow cytometry relative to control; type: functional
[24] = Selectivity index, ratio of IC50 for human L02 cells to IC50 for human A549 cells; type: toxicity; details: L02 cells and A549 cells, read-out: Ratio IC50
[25] = system: HCT-116; assay: Induction of apoptosis in human HCT-116 cells at 2000 nM measured after 48 hrs by Annexin-FITC/propidium iodide staining based flow cytometry; type: functional, cell-based

O=C(COc1ccc(C(=O)NC2CC=C(c3c[nH]c4cccc(F)c34)CC2)cc1)NO (stereo unspecified)
pIC50 [1]: < 5.30
pIC50 [2]: < 5.30

O=C(COc1ccc(CN2CC=C(c3c[nH]c4cccc(F)c34)CC2)cc1)NO
pIC50 [1]: 5.64
pIC50 [2]: 6.01

Cc1[nH]c2ccccc2c1C1=CCN(Cc2ccc(OCC(=O)NO)cc2F)CC1
pIC50 [1]: 5.80
pIC50 [2]: 5.91

Cc1ccc2[nH]cc(C3=CCN(Cc4ccc(OCC(=O)NO)cc4F)CC3)c2c1
pIC50 [1]: 5.71
pIC50 [2]: 5.84

O=C(COc1ccc(C(=O)N2CC=C(c3c[nH]c4ccc(F)cc34)CC2)cc1)NO
pIC50 [1]: < 5.30
pIC50 [2]: < 5.30

Cc1ccc2[nH]cc(C3=CCC(NCc4ccc(OCC(=O)NO)cc4F)CC3)c2c1 (stereo unspecified)
pIC50 [1]: 5.56
pIC50 [2]: 6.35

Cc1ccc2[nH]cc(C3=CCN(Cc4ccc(OCC(=O)NO)cc4)CC3)c2c1
pIC50 [1]: 5.40
pIC50 [2]: 6.20

Cc1[nH]c2cccc(F)c2c1C1=CCC(NCc2ccc(OCC(=O)NO)cc2F)CC1 (stereo unspecified)
pIC50 [3]: 5.93
pIC50 [4]: 6.61
pIC50 [2]: 6.60

O=C(COc1ccc(CN2CC=C(c3c[nH]c4ccc(F)cc34)CC2)c(F)c1)NO
pIC50 [1]: 5.41
pIC50 [2]: < 5.30

O=C(COc1ccc(CNCCc2c[nH]c3ccccc23)cc1Cl)NO
pIC50 [3]: 5.97
pIC50 [2]: 5.71

O=C(COc1ccc(CNCCc2c[nH]c3ccccc23)cc1)NO
pIC50 [3]: 6.66
pIC50 [2]: 6.72

O=C(COc1ccc(CN2CC=C(c3c[nH]c4cccc(F)c34)CC2)c(F)c1)NO
pIC50 [1]: 5.25
pIC50 [2]: 5.91

O=C(COc1ccc(CNC2CC=C(c3c[nH]c4ccc(F)cc34)CC2)c(F)c1)NO (stereo unspecified)
pIC50 [1]: 6.75
pIC50 [3]: 5.85
pIC50 [4]: 6.52
pIC50 [2]: 6.58

Cc1[nH]c2ccccc2c1C1=CCC(NCc2ccc(OCC(=O)NO)cc2F)CC1 (stereo unspecified)
inhibition [5]: Dde
inhibition [6]: Dde
Activity [7]: Dde
inhibition [8]: Dde
Ratio IC50 [9]: 3
pIC50 [10]: 8.80
pIC50 [1]: 6.77
IC50 at 72 h [11]: 2.3 µM
pIC50 [3]: 6.04
Ratio IC50 [12]: 3
Ratio IC50 [13]: 3
Activity [14]: Dde
pIC50 [4]: 6.89
pIC50 [15]: 7.07
Activity [16]: 91.5%
Activity [17]: Dde
Activity [18]: Active
pIC50 [19]: 8.72
pIC50 [20]: 7.89
pIC50 [2]: 7.00
Activity [21]: Dde
pIC50 [22]: 8.42
Activity [23]: 81.8%
selectivity ratio [24]: 20

Cc1[nH]c2ccccc2c1C1=CCC(NC(=O)c2ccc(OCC(=O)NO)cc2)CC1 (stereo unspecified)
pIC50 [1]: < 5.30
pIC50 [2]: < 5.30

O=C(COc1ccc(CN2CC=C(c3c[nH]c4ccc(F)cc34)CC2)cc1)NO
pIC50 [1]: 5.95
pIC50 [2]: 6.02

COc1cc(OCC(=O)NO)ccc1CNCCc1c[nH]c2ccccc12
pIC50 [3]: < 5.00
pIC50 [2]: < 5.00

O=C(COc1ccc(CNCCc2c[nH]c3ccccc23)cc1F)NO
pIC50 [3]: 6.81
pIC50 [2]: 6.79

O=C(COc1ccc(C(=O)N2CC=C(c3c[nH]c4cccc(F)c34)CC2)cc1)NO
pIC50 [1]: 5.83
pIC50 [2]: 5.85

Cc1[nH]c2ccccc2c1C1=CCN(C(=O)c2ccc(OCC(=O)NO)cc2)CC1
pIC50 [1]: < 5.30
pIC50 [2]: < 5.30

O=C(COc1ccc(CNC2CC=C(c3c[nH]c4ccccc34)CC2)c(F)c1)NO (stereo unspecified)
pIC50 [1]: 5.94
pIC50 [3]: 5.93
pIC50 [4]: 6.56
pIC50 [2]: 6.36

Cc1[nH]c2ccccc2c1C1=CCN(Cc2ccc(OCC(=O)NO)cc2)CC1
pIC50 [1]: 6.16
pIC50 [3]: 5.80
pIC50 [4]: 6.21
pIC50 [2]: 6.52

O=C(COc1ccc(CNCCn2cnc3ccccc32)c(F)c1)NO
pIC50 [3]: 6.27
pIC50 [2]: 6.39

O=C(CCCCCCC(=O)Nc1ccccc1)NO [VORINOSTAT]
Activity [25]: Active
pIC50 [1]: 5.67

Cc1[nH]c2ccccc2c1C1=CCC(NCc2ccc(OCC(=O)NO)cc2F)C(F)C1 (stereo unspecified)
pIC50 [1]: 6.29
pIC50 [3]: 5.64
pIC50 [4]: 6.30
pIC50 [2]: 6.13

O=C(COc1ccc(CNCCc2c[nH]c3ccccc23)c(F)c1)NO
pIC50 [10]: 8.68
IC50 at 72 h [11]: 1.56 µM
pIC50 [3]: 7.11
pIC50 [15]: 7.05
pIC50 [19]: 8.51
pIC50 [20]: 7.85
pIC50 [2]: 7.34
pIC50 [22]: 8.20

COc1cc(OCC(=O)NO)ccc1CNCCn1cnc2ccccc21
pIC50 [3]: < 5.00
pIC50 [2]: < 5.00

Cc1[nH]c2ccccc2c1C1=CCC(NCc2ccc(OCC(=O)NO)cc2)CC1 (stereo unspecified)
pIC50 [1]: 6.44
pIC50 [3]: 6.05
pIC50 [4]: 6.73
pIC50 [2]: 6.74

O=C(COc1cccc(CNCCc2c[nH]c3ccccc23)c1)NO
pIC50 [3]: 5.63
pIC50 [2]: 5.58

O=C(COc1ccc(CNC2CC=C(c3c[nH]c4cccc(F)c34)CC2)c(F)c1)NO (stereo unspecified)
pIC50 [1]: 6.72
pIC50 [3]: 6.04
pIC50 [4]: 6.69
pIC50 [2]: 6.76
